Source: patent US20030092735A1, “Use of substance P antagonists for the treatment of chronic fatigue syndrome and/or fibromyalgia and use of NK-1 receptor antagonists for the treatment of chronic fatigue syndrome” (priority 1998, published 2003)

How the values were obtained:
[1] = tested on: Patients with chronic fatigue syndrome; test: CFS Clinical Study (randomized, double-blind, placebo-controlled); format: in vivo, human; settings: doses of 10 to 20 mg/day, myalgias, cognitive impairment, baseline vs end of treatment
Description: Patients with chronic fatigue syndrome according to the CDC (Centre for Disease Control) definition (G. P. Holmes et al.: A working case definition. Ann. intern. Med; 108 (1988), 387-389) are included in the trial. Other recognised definitions may be used to identify patients with chronic fatigue syndrome as appropriate. Both male and female patients are eligible, provided they are over 18 years of age and under 65 years of age. The main exclusion criteria comprise pregnant and lactating women; in addition patients suffering from other diseases that cause significant fatigue as well as patients who suffer from active infections are excluded. […]
The study is in the form of a prospective, randomized, double-blind, placebo-controlled, parallel-group study using different doses of a Preferred A Compound of the Invention, (e.g. (2R,4S)-N-[1-(3,5-bistrifluoromethylbenzoyl)-2-(4-chlorobenzyl)-piperidin-4-yl-quinolin-4-carboxamide). […] Adverse events are assessed during the active treatment period. […]
Other parameters which are evaluated include cognitive impairment (to be measured by visual analog scale [VAS]) and the assessment of myalgias. […] The assessment of each body region is done by the patients themselves; the total score is calculated as the sum of the regional scores. […]

[2] = tested on: patients who meet the ACR criteria for primary fibromyalgia; test: Fibromyalgia Clinical Study (randomized, double-blind, placebo-controlled); format: in vivo, human; settings: doses of 10 to 20 mg/day; response = 35% or higher reduction in individual pain score, baseline versus end of treatment
Description: The study is in the form of a prospective, randomized, double-blind, placebo-controlled, parallel-group study using different doses of Compound of the Invention. Male and female patients (over 18 years) who meet the ACR (American College of Rheumatology) cirteria for primary fibromyalgia are included in this trial. The main exclusion criteria include pregnant and lactating woman, patients suffering from other inflammatory rheumatological diseases (such as rheumatoid arthritis or collagenoses), severe neuropathies, clinically manifest endocrinopathies, bone diseases, severe cardial, renal or hepatic impairment and acute or chronic infections.
Patients are randomly assigned to one of five study arms, placebo, 1 mg, 10 mg, 20 mg and 40 mg of test compound. The duration of treatment is two weeks. Before, on day 7 and at the end of the treatment phase, a physical examination, pain assessment and blood testing are performed. […] Adverse events are assessed during the active treatment period.
To evaluate pain, the pain score, a visual analogue scale and clinical examination of tenderpoints is used. […] The assessment of each body region is done by the patients themselves; the total score is calculated as the sum of the regional scores. […]

[3] = tested on: patients who meet the ACR criteria for primary fibromyalgia; settings: Amitryptilin regarded as an effective treatment in fibromyalgia; comparator value; cited from earlier work

In the case of O=C(N[C@H]1CCN(C(=O)c2cc(C(F)(F)F)cc(C(F)(F)F)c2)[C@H](Cc2ccc(Cl)cc2)C1)c1ccnc2ccccc12 [(2R,4S)-N-[1-(3,5-bistrifluoromethylbenzoyl)-2-(4-chlorobenzyl)-piperidin-4-yl-quinolin-4-carboxamide], the “reduction in the score for one or more symptoms of CFS” value [1] is reported as no less than 20% and the “response rates for fibromyalgia treatment” value [2] is reported as “at least equivalent to or comparable with those achieved with Amitryptilin”.

In the case of CN(C)CCC=C1c2ccccc2CCc2ccccc21 [Amitryptilin], the “response rates in fibromyalgia (of patients)” value [3] is listed as 20 to 30%.
